Reference: US20070032533A1, “Nitric oxide enhancing angiotensin II antagonist compounds, compositions and methods of use” (NitroMed, Inc., priority 2005, published 2007)
Structures can show the parent of a compound that is named as a salt.

Assays:
[1] = target: T1, Human angiotensin II type 1 receptor (Homo sapiens, UniProt P30556); assay: Human angiotensin II type 1 receptor binding assay; details: for inhibition at 0.1 µM / AT1 Binding Human % Inhibition at 100 nM: percent inhibition of control specific binding at 100 nM test compound; for inhibition at 0.1 µM: read-out: AT1 Binding Human % Inhibition at 100 nM
T1 construct: Cerep, Seattle, Wash; (contract laboratory that ran the assay)
T1 sequence (P30556 1-359): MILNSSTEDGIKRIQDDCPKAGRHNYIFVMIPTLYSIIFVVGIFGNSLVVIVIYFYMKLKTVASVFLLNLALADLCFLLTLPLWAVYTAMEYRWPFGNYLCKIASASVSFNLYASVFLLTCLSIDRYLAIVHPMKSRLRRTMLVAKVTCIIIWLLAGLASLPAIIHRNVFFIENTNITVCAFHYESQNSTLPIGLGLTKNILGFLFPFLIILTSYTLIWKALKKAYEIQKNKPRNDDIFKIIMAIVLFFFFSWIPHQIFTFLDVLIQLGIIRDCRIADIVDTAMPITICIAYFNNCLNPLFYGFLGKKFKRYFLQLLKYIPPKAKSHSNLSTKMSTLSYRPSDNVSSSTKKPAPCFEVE
Procedure: Human Angiotensin II Type 1 Receptor Binding Assay
The Human angiotensin II type 1 receptor binding assay was performed by Cerep, Seattle, Wash., using the procedure described in Bergsma et al; Biochem. Biophys. Res. Commun., 183: 989-995 (1992).

Row | SMILES | melting point | inhibition at 0.1 µM [1] | AT1 Binding Human % Inhibition at 100 nM [1] | IC50 ([1]; human AT1 receptor binding, performed by Cerep)
1 | CCCCC(=O)N(Cc1ccc(-c2ccccc2-c2nnn[nH]2)cc1)[C@H](C(=O)N(CCO[N+](=O)[O-])CCO[N+](=O)[O-])C(C)C [Example 8] | 87 to 90 °C | 4% |  | 
2 | CC(C)[C@@H](C(=O)O)N(Cc1ccc(-c2ccccc2-c2nnn[nH]2)cc1)C(=O)CCCCCO[N+](=O)[O-] [Example 2g, L-valine, N-[6-(nitrooxy)-1-oxohexyl]-N-[[2′-(1H-tetrazol-5-yl)[1,1′-biphenyl]-4-yl]methyl]] | 196 °C (dec.) |  |  | 
3 | CCCCC(=O)N(Cc1ccc(-c2ccccc2-c2nnn[nH]2)cc1)[C@H](C(=O)N1CCC(CO[N+](=O)[O-])CC1)C(C)C [Example 10, Pentanamide, N-[(1S)-2-methyl-1-[[4-[(nitrooxy)methyl]-1-piperidinyl]carbonyl]propyl]-N-[[2′-(1H-tetrazol-5-yl) [1,1′-biphenyl]-4-yl]methyl]] | 86 to 88 °C | 22% |  | 
4 | CCc1nc2c(C)cc(C)nc2n1Cc1ccc(-c2ccccc2S(=O)(=O)NC(=O)C2CC(C)(C)N([O])C(C)(C)C2)cc1 [Example 11, 1-Piperidinyloxy, 4-[[[[4′-[(2-ethyl-5,7-dimethyl-3H-imidazo[4,5-b]pyridin-3-yl)methyl][1,1′-biphenyl]-2-yl]sulfonyl]amino]carbonyl]-2,2,6,6-tetramethyl] |  |  | 88% | 
5 | CCc1nc2c(C)cc(C)nc2n1Cc1ccc(-c2ccccc2S(=O)(=O)NC(=O)c2ccccc2)cc1 [MK 996, reference compound] |  |  | 91% | 
6 | CC(C)[C@@H](C(=O)O)N(Cc1ccc(-c2ccccc2-c2nnn[nH]2)cc1)C(=O)c1cccc(CO[N+](=O)[O-])c1 [Example 3b, L-valine, N-[3-[(nitrooxy)methyl]benzoyl]-N-[[2′-(1H-tetrazol-5-yl)[1,1′-biphenyl]-4-yl]methyl]] | 151 °C (dec.) | 5% |  | 
7 | CC(C)[C@@H](C(=O)OC(C)(C)C)N(Cc1ccc(-c2ccccc2-c2nnn(C(c3ccccc3)(c3ccccc3)c3ccccc3)n2)cc1)C(=O)CCCCCO[N+](=O)[O-] [Example 2f, L-valine, N-[6-(nitrooxy)-1-oxohexyl]-N-[[2′-[2-(triphenylmethyl)-2H-tetrazol-5-yl][1,1′-biphenyl]-4-yl]methyl]-, 1,1-dimethylethyl ester] |  | 12% |  | 
8 | CC(C)[C@@H](C(=O)O)N(Cc1ccc(-c2ccccc2-c2nnn[nH]2)cc1)C(=O)CCCC(CO[N+](=O)[O-])O[N+](=O)[O-] (stereo partly drawn) [Example 5b, L-valine, N-[5,6-bis(nitrooxy)-1-oxohexyl]-N-[[2′-(1H-tetrazol-5-yl)[1,1′-biphenyl]-4-yl]methyl]] | 192 °C (dec.) | -1% |  | 
9 | CCOc1nc2cccc(CO[N+](=O)[O-])c2n1Cc1ccc(-c2ccccc2-c2nnn[nH]2)cc1 (as salt: nitrate) [Example 14e, 1H-benzimidazole-7-methanol, 2-ethoxy-1-[[2′-(1H-tetrazol-5-yl)[1,1′-biphenyl]-4-yl]methyl]-, nitrate (ester)] | 126 °C (dec.) |  |  | 
10 | CC(C)[C@@H](C(=O)O)N(Cc1ccc(-c2ccccc2-c2nnn[nH]2)cc1)C(=O)CCC(CO[N+](=O)[O-])O[N+](=O)[O-] (stereo partly drawn) [Example 4b, L-valine, N-[4,5-bis(nitrooxy)-1-oxopentyl]-N-[[2′-(1H-tetrazol-5-yl)[1,1′-biphenyl]-4-yl]methyl]] | 182 °C (dec.) | 2% |  | 
11 | CCCCC(=O)N(CCCO[N+](=O)[O-])Cc1ccc(-c2ccccc2-c2nnn[nH]2)cc1 [Example 7d, Pentanamide, N-[3-(nitrooxy)propyl]-N-[[2′-(1H-tetrazol-5-yl)[1,1′-biphenyl]-4-yl]methyl]] | 54 to 59 °C | 21% |  | 
12 | CC(C)[C@@H](C(=O)O)N(Cc1ccc(-c2ccccc2-c2nnn[nH]2)cc1)C(=O)CCCCO[N+](=O)[O-] [Example 1g, L-valine, N-[5-(nitrooxy)-1-oxopentyl]-N-[[2′-(1H-tetrazol-5-yl)[1,1′-biphenyl]-4-yl]methyl]] | 108 to 111 °C | 86% |  | 18 nM
13 | CCCCC(=O)N(Cc1ccc(-c2ccccc2-c2nnn[nH]2)cc1)[C@H](C(=O)O)C(C)C [Valsartan, reference compound] |  | 94% |  | 
14 | CCc1nc2c(C)cc(C)nc2n1Cc1ccc(-c2ccccc2S(=O)(=O)NC(=O)C2=CC(C)(C)N([O])C2(C)C)cc1 [Example 12, 1H-Pyrrol-1-yloxy, 3-[[[[4′-[(2-ethyl-5,7-dimethyl-3H-imidazo[4,5-b]pyridin-3-yl)methyl][1,1′-biphenyl]-2-yl]sulfonyl]amino]carbonyl]-2,5-dihydro-2,2,5,5-tetramethyl] |  |  | 78% | 
15 | CCc1nc2c(C)cc(C)nc2n1Cc1ccc(-c2ccccc2S(=O)(=O)NC(=O)c2cccc(CO[N+](=O)[O-])c2)cc1 [Example 13, Benzamide, N-[[4′-[(2-ethyl-5,7-dimethyl-3H-imidazo[4,5-b]pyridin-3-yl)methyl][1,1′-biphenyl]-2-yl]sulfonyl]-3-[(nitrooxy)methyl]] | 123 °C (dec.) | 73% |  | 
16 | CC(C)[C@@H](C(=O)N(C)C)N(Cc1ccc(-c2ccccc2-c2nnn[nH]2)cc1)C(=O)CCCCO[N+](=O)[O-] [Example 6, Pentanamide, N-[(1S)-1-[(dimethylamino)carbonyl]-2-methylpropyl]-5 (nitrooxy)-N-[[2′-(1H-tetrazol-5-yl)[1,1′-biphenyl]-4-yl]methyl]] | 75 to 78 °C | 83% |  | 
17 | CCCCC(=O)N(Cc1ccc(-c2ccccc2-c2nnn[nH]2)cc1)[C@H](C(=O)N(C)CCO[N+](=O)[O-])C(C)C [Example 9] | 86 to 89 °C | 8% |  | 
